Test results reported in US9597295B2, “Diene compounds for use in human epidermal cell repair, and pharmaceutical and cosmetic compositions containing them” (GIULIANI S.P.A., priority 2009, dated 2017).

Key:
IL-1α = IL-1α quantification in the growth medium using ELISA; type: cell-based, human; settings: RHE growth medium, 0.1% single dose, after 24 h
Procedure: The release of IL-1α was assayed in 200 μl of the growth medium underneath the RHE at preset sampling times using a highly-sensitive, specific ELISA (enzyme-linked immunosorbent assay) kit according to the manufacturer's instructions. The end-product was quantified at 450 nm.
The underlying growth medium for each RHE was collected immediately after the recovery time and stored at −20° C. in plastic cryo-vials.
Before the test, the medium was conditioned at room temperature. The results were expressed as pg/ml of IL-1α. Concentrations between 3.9 and 250 pg/ml were considered within the range of sensitivity.

[1] = system: reconstructed human epidermis (RHE); test: H&E histology of reconstructed human epidermis; type: cell-based; settings: single acute administration at 0.1%
From the text: (§1) The RHE (SkinEthic®) 0.5 cm^2, which reproduces the morphology of the epidermis, was accurately characterised: a fully-differentiated epidermis develops after 17 days of airlift culture of NHK (normal human keratinocytes) from skin biopsies in a given medium (MCDB153).
At the end of the study period, the tissues were washed with PBC, fixed in 10% buffered formalin and prepared for histological examination.
The tissue was embedded in paraffin blocks and cut into sections (3-5μ thick) on a microtome. The sections were then transferred to slides, deparaffinised and rehydrated, then stained with haematoxylin and eosin (H&E).
The samples for histology were analysed under the microscope. The overall morphology and any changes by comparison with the negative controls were assessed and recorded in the laboratory report.
The samples for histology were analysed under the Leica microscope DM2500 and recorded using the Leica Application Suite (LAS) software.

cK-10 = cK-10 immunohistochemical expression in the RHE (separate study); type: cell-based, human; settings: day 17 of differentiation, versus untreated controls
From the text: Finally, in a separate study conducted using similar methods, the expression of cK-10 in the RHE was studied on days 15 and 17 of differentiation, recorded by its immunohistochemical expression. cK-10 is a marker of the terminal differentiation of the keratinocytes at granular and spinal level.

cK-19 (KRT19) mRNA = test: cK-19 mRNA expression by real-time PCR in reconstructed human epidermis; type: cell-based; settings: RHE, single 20 μl dose at 0.1%
Procedure: as §1
(§2) On arrival, the RHE (day 11) were removed from the agarose nutrient solution under a flow of sterile air. The inserts were rapidly plated in six-well plates previously filled with 1 ml of growth medium each at 37° C., […], and 90% relative humidity, taking care to avoid any formation of bubbles underneath the insert.
The substances tested were solubilised in DMSO (Sigma) to obtain a final concentration of 0.2%.
This stock solution was diluted in PBS to achieve the 0.1% of active principle.
The solution was applied with care to each tissue using a micro-pipette in a single dose of 20 μl.
The method is based on the capacity of the glass fibres to bind the nucleic acid in chaotropic concentrated saline solutions. The samples are disrupted in a highly-concentrated solution of guanidinium salts that lyse the cells and inactivate the endogenous RNase. The lysate is diluted with ethanol to make the […] competent for binding with the glass fibre of the filter in the filter cartridge. The RNA binds to the filter, while the other cell components slide freely through the filter. The filter is then washed three times and the RNA is eluted in a solution with a very low ionic strength.
The rationale in this method is based on the use of random primers to begin cDNA synthesis that ensure an efficient synthesis of the first helix of all the RNA molecules present.
(§3) The “Applied Biosystems 7500 real-time PCR” instrument uses PCR chemistry based on fluorescence, the TaqMan assay.
(§4) This technique uses Taqman probes to identify the fluorescent signal: it is highly sensitive and consists in amplifying and quantifying a specific nucleic acid sequence. The PCR product is detected in real time. The DNA, cDNA or RNA are quantified by determining the cycle in which the PCR product can be identified first, and therefore not when the reaction has reached saturation. The product is quantified by detecting the fluorescence measured in each cycle: the entity of the signal is directly proportional to the quantity of product amplified.
The relative quantification is measured from the difference between the expression of the nucleic acid sequence of a sample being tested and the same sequence in the calibration sample.
Each biological sample was processed in triplicate. The Taqman gene expression assay and cDNA (25 ng) were added to the “2× TaqMan Universal PCR Master Mix”, making up to a total volume of 25 μl.
The tissues were homogenised in 300 μl of lysis buffer for […] extraction.
On day 1, the RHE were 12 days old. The substances being tested (in duplicate) and the controls were applied in a single dose (20 μl). The RHE were then incubated without further treatment for 24 hours.

cK-14 (KRT 14) mRNA = test: cK-14 mRNA expression by real-time PCR in reconstructed human epidermis; type: cell-based; settings: RHE, 0.1%, during the whole study, by comparison with the controls
Procedure: as §1, §2
The substances tested were solubilised in DMSO (Sigma) to obtain a final concentration of 0.2%. […]
as §3
as §4, with “amplified. […]” for “amplified.”

[2] = 24 hours of treatment, day 13, calibrated to DMSO controls
[3] = 48 hours of treatment, day 15, by comparison with the PBS control
[4] = 120 hours of treatment, day 17 (final differentiation), by comparison with the controls

| release of IL-1α (IL-1α) | Structure (SMILES) | toxicity (histomorphological analysis, cK-16 expression, IL-1α release) [1] | cK-10 immunohistochemical expression (cK-10) | cK-19 mRNA gene expression (cK-19 (KRT19) mRNA; [2]) | cK-19 mRNA gene expression (cK-19 (KRT19) mRNA; [3]) | cK-19 mRNA gene expression (cK-19 (KRT19) mRNA; [4]) | cK-14 expression (marker of mitotic activity) (cK-14 (KRT 14) mRNA) |
| --- | --- | --- | --- | --- | --- | --- | --- |
| no such release | C/C=C/C=C/C=C/CO [PRT, 2E,4E,6E-Octatrien-1-ol] | toxicity similar for retinol and 2,4,6-octatrien-1-ol |  |  |  |  |  |
| early but very low release | CC1=C(/C=C/C(C)=C/C=C/C(C)=C/CO)C(C)(C)CCC1 [RET, Retinol] | toxicity similar for retinol and 2,4,6-octatrien-1-ol | negative | regulation level resembling the values of the calibrator | diminished | up-regulation | did not differ significantly |
| no such release | C/C=C/C=C/C=C/C(=O)OCC [DPRT, 2E,4E,6E-Octa-2,4,6-trienoic acid ethyl ester] | no relevant signs of toxicity |  | much diminished | not diminished | up-regulation |  |
